Experimental data as given in PubChem BioAssay (NCI).
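Briefly, cells in 96-well plates were exposed to five compound concentrations for 48 h, and endpoints were estimated by linear interpolation. GI50 = concentration required for 50% inhibition of growth. TGI: concentration producing complete growth inhibition.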

How the values were obtained:
Assay in all cases: NCI tumour cell line growth inhibition, 48 h
[1] = test system: DMS 114 small cell lung
[2] = test system: LOX IMVI melanoma
[3] = test system: ACHN renal
[4] = test system: SW-620 colon
[5] = test system: A549 NSCLC
[6] = test system: DLD-1 colon
[7] = test system: HCT-116 colon
[8] = test system: NCI-H522 lung
[9] = test system: MCF7 breast
[10] = test system: OVCAR-3 ovarian
[11] = test system: CAKI-1 renal
[12] = test system: TK-10 renal
[13] = test system: SNB-19 CNS
[14] = test system: P388 leukemia
[15] = test system: MOLT-4 leukemia
[16] = test system: HOP-92 NSCLC
[17] = test system: UACC-62 melanoma
[18] = test system: A498 renal
[19] = test system: SK-OV-3 ovarian
[20] = test system: OVCAR-5 ovarian
[21] = test system: KM12 colon
[22] = test system: SN12C renal
[23] = test system: UO-31 renal
[24] = test system: COLO 205 colon
[25] = test system: HCT-15 colon
[26] = test system: HCC-2998 colon
[27] = test system: SN12K1 renal
[28] = test system: RPMI-8226 leukemia
[29] = test system: RXF 393 renal
[30] = test system: DU-145 prostate
[31] = test system: NCI/ADR-RES ovarian
[32] = test system: HS 578T breast
[33] = test system: LXFL 529 NSCLC
[34] = test system: OVCAR-4 ovarian
[35] = test system: MALME-3M melanoma
[36] = test system: HOP-62 NSCLC
[37] = test system: PC-3 prostate
[38] = test system: SR leukemia
[39] = test system: M19-MEL melanoma
[40] = test system: M14 melanoma
[41] = test system: SK-MEL-5 melanoma
[42] = test system: SK-MEL-28 melanoma
[43] = test system: K-562 leukemia
[44] = test system: XF 498 CNS
[45] = test system: SF-295 CNS
[46] = test system: T-47D breast
[47] = test system: SNB-78 CNS
[48] = test system: HL-60(TB) leukemia
[49] = test system: HT29 colon
[50] = test system: P388/ADR leukemia
[51] = test system: NCI-H226 lung
[52] = test system: U251 CNS
[53] = test system: HOP-18 NSCLC
[54] = test system: SF-268 CNS
[55] = test system: CCRF-CEM leukemia
[56] = test system: EKVX NSCLC
[57] = test system: NCI-H460 lung
[58] = test system: OVCAR-8 ovarian
[59] = test system: NCI-H23 lung
[60] = test system: KM20L2 colon
[61] = test system: BT-549 breast
[62] = test system: IGROV1 ovarian
[63] = test system: SNB-75 CNS
[64] = test system: SK-MEL-2 melanoma
[65] = test system: MDA-MB-435
[66] = test system: DMS 273 small cell lung
[67] = test system: UACC-257 melanoma
[68] = test system: SF-539 CNS

CC[C@@]1(O)C(=O)OCc2c1cc1n(c2=O)Cc2cc3ccccc3nc2-1
TGI [1]: 3.27 µM
TGI [2]: 0.64 µM
TGI [3]: 0.191 µM
GI50 [4]: 0.0246 µM
TGI [4]: 5.81 µM
GI50 [5]: 0.0157 µM
TGI [5]: 2.51 µM
TGI [6]: 25.7 µM
TGI [7]: 1.91 µM
TGI [8]: 0.596 µM
TGI [9]: 0.203 µM
GI50 [10]: 0.214 µM
TGI [10]: 0.726 µM
TGI [11]: 0.0322 µM
TGI [12]: 51.2 µM
TGI [13]: > 30.9 µM
TGI [14]: 0.42 µM
TGI [15]: 0.0445 µM
TGI [16]: 0.131 µM
TGI [17]: 0.0736 µM
TGI [18]: 0.212 µM
GI50 [19]: 0.0241 µM
TGI [19]: 1.42 µM
GI50 [20]: 0.111 µM
TGI [20]: 1.04 µM
GI50 [21]: 0.292 µM
TGI [21]: 5.61 µM
TGI [23]: 0.234 µM
TGI [24]: 5.18 µM
TGI [25]: 7.99 µM
TGI [26]: 1.21 µM
TGI [27]: 1 µM
TGI [28]: 0.765 µM
TGI [29]: 0.126 µM
TGI [30]: 0.0605 µM
GI50 [31]: < 0.0143 µM
TGI [31]: 0.125 µM
TGI [32]: > 100 µM
TGI [33]: 3.54 µM
TGI [34]: 2.21 µM
TGI [35]: 2.11 µM
TGI [36]: 0.132 µM
TGI [37]: > 100 µM
TGI [38]: 0.0769 µM
TGI [39]: 1.35 µM
TGI [40]: 1.8 µM
TGI [41]: 0.181 µM
GI50 [42]: 0.18 µM
TGI [42]: 21.2 µM
GI50 [43]: 0.0514 µM
TGI [43]: 45.6 µM
TGI [44]: 0.259 µM
TGI [45]: 0.0698 µM
TGI [46]: 0.635 µM
TGI [47]: > 20.5 µM
TGI [48]: 0.0527 µM
TGI [49]: 0.839 µM
TGI [50]: 0.677 µM
GI50 [51]: 0.0202 µM
TGI [51]: 0.177 µM
GI50 [52]: < 0.0129 µM
TGI [52]: 0.769 µM
TGI [53]: 2.14 µM
GI50 [54]: < 0.01 µM
TGI [54]: 4.01 µM
TGI [55]: 0.0159 µM
TGI [56]: 1.6 µM
TGI [57]: 0.158 µM
GI50 [58]: 0.0246 µM
TGI [58]: 0.555 µM
TGI [59]: 0.0928 µM
TGI [60]: 3.65 µM
TGI [61]: 2.6 µM
TGI [62]: 11.3 µM
TGI [63]: 0.314 µM
GI50 [64]: 0.34 µM
TGI [64]: 1.22 µM
TGI [65]: 0.285 µM
TGI [66]: 0.385 µM
TGI [67]: 0.592 µM
TGI [68]: 0.0591 µM

Cc1[nH]c(=O)[nH]c(=O)c1/C=C/C(=O)NC(CO)CS(=O)CS(C)=O (stereo not given)
TGI [1]: 42 µM
TGI [2]: 86.9 µM
TGI [4]: 409 µM
TGI [5]: 332 µM
TGI [6]: 253 µM
TGI [7]: 129 µM
TGI [8]: 32.3 µM
TGI [9]: 125 µM
TGI [10]: 31.1 µM
TGI [11]: 13.3 µM
TGI [13]: 77.9 µM
TGI [14]: 74.8 µM
TGI [15]: 66.5 µM
TGI [16]: 44 µM
TGI [17]: 56.3 µM
TGI [18]: 130 µM
TGI [19]: 169 µM
TGI [20]: 483 µM
TGI [21]: > 92.1 µM
TGI [22]: 91.5 µM
TGI [23]: 130 µM
TGI [24]: 132 µM
TGI [25]: 408 µM
TGI [26]: 53.8 µM
TGI [27]: 64.8 µM
TGI [28]: 183 µM
TGI [29]: 125 µM
TGI [31]: 263 µM
TGI [34]: 14.9 µM
TGI [35]: 57.9 µM
TGI [36]: 94.5 µM
TGI [39]: 74.3 µM
TGI [41]: 76.9 µM
TGI [42]: 69.8 µM
TGI [43]: 135 µM
TGI [44]: 8.12 µM
TGI [45]: 77.5 µM
TGI [47]: 97.5 µM
TGI [48]: 57.4 µM
TGI [49]: 515 µM
TGI [50]: 225 µM
TGI [51]: 77.3 µM
TGI [52]: 39.6 µM
TGI [53]: 551 µM
TGI [54]: 35.2 µM
TGI [55]: 111 µM
TGI [56]: 66.4 µM
TGI [57]: 68.1 µM
TGI [58]: 122 µM
TGI [59]: 43.7 µM
TGI [60]: 328 µM
TGI [62]: 103 µM
TGI [63]: 38.8 µM
TGI [64]: 59.2 µM
TGI [66]: 117 µM
TGI [67]: 151 µM
TGI [68]: 51.5 µM
